The results in this text go back to patent publication US10633353B2, “Polymerizable compound, composition, polymer, optically anisotropic body, liquid crystal display element, and organic EL display” (DIC Corporation, priority 2014, dated 2020).

The data set is described as follows: Preservation stability of the coating liquid. It counts as physicochemical. Particulars: coating liquid stored for 2 months shielded from light at 0° C.; appearance and GPC. The method, then: The preservation stability of the coating liquid was evaluated on a scale of A to E on the basis of the state of the coating liquid that was stored for 2 months under a condition where the coating liquid was shielded from light at 0° C.
A: No visual change in the appearance of the coating liquid was confirmed. A GPC analysis of the coating liquid confirmed that the change in the composition of the coating liquid was 1% or less.
B: No visual change in the appearance of the coating liquid was confirmed. A GPC analysis of the coating liquid confirmed that the change in the composition of the coating liquid was 2% or less.
C: A visual change in the appearance of the coating liquid was confirmed; a trace amount of insoluble components were confirmed, or a GPC analysis of the coating liquid confirmed that the change in the composition of the coating liquid was 3% or less.
D: A visual change in the appearance of the coating liquid was confirmed; insoluble components were confirmed. The ratio of the weight of the insoluble components to the total solid content was 5% or less.
E: A large amount of insoluble components were visually confirmed. The ratio of the weight of the insoluble components to the total solid content was 5% or more.
`C=CC(=O)OCCCCOc1ccc(CCC(=O)Oc2ccc(OC(=O)CCc3ccc(OCCCCOC(=O)C=C)cc3)c(/C=N/Nc3nc4ccccc4s3)c2)cc1` [1-c-50]: the Preservation stability result is “A (No visual change in the appearance of the coating liquid was confirmed. A GPC analysis of the coating liquid confirmed that the change in the composition of the coating liquid was 1% or less.)”.

Turning to `C=CC(=O)OCCCCCCOc1ccc(CCC(=O)Oc2ccc(OC(=O)CCc3ccc(OCCCCCCOC(=O)C=C)cc3)c(/C=N/Nc3nc4ccccc4s3)c2)cc1` [1-c-51], the Preservation stability entry is reported as “A (No visual change in the appearance of the coating liquid was confirmed. A GPC analysis of the coating liquid confirmed that the change in the composition of the coating liquid was 1% or less.)”.

Regarding `C=CC(=O)OCCCOc1ccc(CCC(=O)Oc2ccc(OC(=O)CCc3ccc(OCCCOC(=O)C=C)c(OC)c3)c(/C=N/Nc3nc4ccccc4s3)c2)cc1OC` [1-c-52], the Preservation stability entry is “A (No visual change in the appearance of the coating liquid was confirmed. A GPC analysis of the coating liquid confirmed that the change in the composition of the coating liquid was 1% or less.)”.

As for `C=CC(=O)OCCCOc1ccc(C#Cc2ccc(C#Cc3ccc(OCCCOC(=O)C=C)cc3)c(/C=N/Nc3nc4ccccc4s3)c2)cc1` [1-c-67], the Preservation stability result is “B (No visual change in the appearance of the coating liquid was confirmed. A GPC analysis of the coating liquid confirmed that the change in the composition of the coating liquid was 2% or less.)”.

As for `C=CC(=O)OCCCCCCOc1ccc(C#Cc2ccc(C#Cc3ccc(OCCCCCCOC(=O)C=C)cc3)c(/C=N/Nc3nc4ccccc4s3)c2)cc1` [1-c-68], the Preservation stability result is on record as “B (No visual change in the appearance of the coating liquid was confirmed. A GPC analysis of the coating liquid confirmed that the change in the composition of the coating liquid was 2% or less.)”.

For the compound `C=CC(=O)OCCCCCCOc1ccc(OCCOc2ccc(OCCOc3ccc(OCCCCCCOC(=O)C=C)cc3)c(/C=N/Nc3nc4ccccc4s3)c2)cc1` [1-c-80], the Preservation stability entry is reported as “A (No visual change in the appearance of the coating liquid was confirmed. A GPC analysis of the coating liquid confirmed that the change in the composition of the coating liquid was 1% or less.)”.

For the compound `C=CC(=O)Oc1ccc(C(=O)OCCc2ccc(OC(=O)c3ccc(OC(=O)C=C)cc3)c(/C=N/Nc3nc4ccccc4s3)c2)cc1` [1-cg-36], the Preservation stability entry is given as “B (No visual change in the appearance of the coating liquid was confirmed. A GPC analysis of the coating liquid confirmed that the change in the composition of the coating liquid was 2% or less.)”.

As for `C=CC(=O)Oc1ccc(C(=O)OCCc2ccc(CCOC(=O)c3ccc(OC(=O)C=C)cc3)c(/C=N/Nc3nc4ccccc4s3)c2)cc1` [1-cg-37], the Preservation stability entry was “B (No visual change in the appearance of the coating liquid was confirmed. A GPC analysis of the coating liquid confirmed that the change in the composition of the coating liquid was 2% or less.)”.

As for `C=CC(=O)OCCCCCCOc1ccc(C(=O)Oc2ccc(C(=O)OCCc3ccc(OC(=O)c4ccc(OC(=O)c5ccc(OCCCCCCOC(=O)C=C)cc5)cc4)c(/C=N/Nc4nc5ccccc5s4)c3)cc2)cc1` [1-ch-79], the Preservation stability result was “A (No visual change in the appearance of the coating liquid was confirmed. A GPC analysis of the coating liquid confirmed that the change in the composition of the coating liquid was 1% or less.)”.

`C=CC(=O)OCCCCOC(=O)/C=C/c1ccc(CCC(=O)Oc2ccc(OC(=O)CCc3ccc(/C=C/C(=O)OCCCCOC(=O)C=C)cc3)c(/C=N/Nc3nc4ccccc4s3)c2)cc1` [1-cj-59]: the Preservation stability entry is recorded as “A (No visual change in the appearance of the coating liquid was confirmed. A GPC analysis of the coating liquid confirmed that the change in the composition of the coating liquid was 1% or less.)”.

As for `C=CC(=O)OCCCCCCOC(=O)/C=C/c1ccc(CCC(=O)Oc2ccc(OC(=O)CCc3ccc(/C=C/C(=O)OCCCCCCOC(=O)C=C)cc3)c(/C=N/Nc3nc4ccccc4s3)c2)cc1` [1-cj-60], the Preservation stability entry was “A (No visual change in the appearance of the coating liquid was confirmed. A GPC analysis of the coating liquid confirmed that the change in the composition of the coating liquid was 1% or less.)”.

Consider `C=CC(=O)OCCCOC(=O)/C=C/c1ccc(CCC(=O)Oc2ccc(OC(=O)CCc3ccc(/C=C/C(=O)OCCCOC(=O)C=C)cc3)c(/C=N/Nc3nc4ccccc4s3)c2)cc1` [1-cj-63], for which the Preservation stability result was “A (No visual change in the appearance of the coating liquid was confirmed. A GPC analysis of the coating liquid confirmed that the change in the composition of the coating liquid was 1% or less.)”.

In the case of `C=CC(=O)OCCCCCCOc1ccc(OC(=O)C2CCC(COc3ccc(OCC4CCC(C(=O)Oc5ccc(OCCCCCCOC(=O)C=C)cc5)CC4)c(/C=N/Nc4nc5ccccc5s4)c3)CC2)cc1` (stereo not drawn) [1-cm-88], the Preservation stability entry is reported as “A (No visual change in the appearance of the coating liquid was confirmed. A GPC analysis of the coating liquid confirmed that the change in the composition of the coating liquid was 1% or less.)”.

Regarding `C=CC(=O)OCCCOc1ccc(OC(=O)C2CCC(COc3ccc(OCC4CCC(C(=O)Oc5ccc(OCCCOC(=O)C=C)cc5)CC4)c(/C=N/Nc4nc5ccccc5s4)c3)CC2)cc1` (stereo not drawn) [1-cm-89], the Preservation stability result is given as “A (No visual change in the appearance of the coating liquid was confirmed. A GPC analysis of the coating liquid confirmed that the change in the composition of the coating liquid was 1% or less.)”.

On to `C=CC(=O)OCCOCCOCCOc1ccc(OC(=O)C2CCC(COc3ccc(OCC4CCC(C(=O)Oc5ccc(OCCOCCOCCOC(=O)C=C)cc5)CC4)c(/C=N/Nc4nc5ccccc5s4)c3)CC2)cc1` (stereo not drawn) [1-cm-105], for which the Preservation stability entry is “A (No visual change in the appearance of the coating liquid was confirmed. A GPC analysis of the coating liquid confirmed that the change in the composition of the coating liquid was 1% or less.)”.

Take `C=CC(=O)OCCOCCOCCOc1ccc(OC(=O)C2CCC(COc3ccc(OCC4CCC(C(=O)Oc5ccc(OCCOCCOCCOC(=O)C=C)cc5)CC4)c(/C=N/N(CCCCCC)c4nc5ccccc5s4)c3)CC2)cc1` (stereo not drawn) [1-cmn-90]: the Preservation stability entry is given as “A (No visual change in the appearance of the coating liquid was confirmed. A GPC analysis of the coating liquid confirmed that the change in the composition of the coating liquid was 1% or less.)”.

As for `C=CC(=O)OCCCCCCOc1ccc(OC(=O)C2CCC(COc3ccc(OCC4CCC(C(=O)Oc5ccc(OCCCCCCOC(=O)C=C)cc5)CC4)c(/C=N/N(CCOCCOC)c4nc5ccccc5s4)c3)CC2)cc1` (stereo not drawn) [1-cmn-91], the Preservation stability result is “A (No visual change in the appearance of the coating liquid was confirmed. A GPC analysis of the coating liquid confirmed that the change in the composition of the coating liquid was 1% or less.)”.

Consider `C=CC(=O)OCCCOc1ccc(OC(=O)C2CCC(COc3ccc(OCC4CCC(C(=O)Oc5ccc(OCCCOC(=O)C=C)cc5)CC4)c(/C=N/N(CCOCCOC)c4nc5ccccc5s4)c3)CC2)cc1` (stereo not drawn) [1-cmn-92], for which the Preservation stability entry is reported as “A (No visual change in the appearance of the coating liquid was confirmed. A GPC analysis of the coating liquid confirmed that the change in the composition of the coating liquid was 1% or less.)”.

As for `C=CC(=O)OCCCCCCOc1ccc(OC(=O)C2CCC(COc3ccc(OCC4CCC(C(=O)Oc5ccc(OCCCCCCOC(=O)C=C)cc5)CC4)c(/C=N/N(CCOC(=O)C=C)c4nc5ccccc5s4)c3)CC2)cc1` (stereo not drawn) [1-cmn-93], the Preservation stability result is “A (No visual change in the appearance of the coating liquid was confirmed. A GPC analysis of the coating liquid confirmed that the change in the composition of the coating liquid was 1% or less.)”.

For `C=CC(=O)OCCCCCCOc1ccc(OC(=O)C2CCC(COc3ccc(OCC4CCC(C(=O)Oc5ccc(OCCCCCCOC(=O)C=C)cc5)CC4)c(/C=N/N(CCOCCOCCOC(=O)C=C)c4nc5ccccc5s4)c3)CC2)cc1` (stereo not drawn) [1-cmn-94], the Preservation stability result was “A (No visual change in the appearance of the coating liquid was confirmed. A GPC analysis of the coating liquid confirmed that the change in the composition of the coating liquid was 1% or less.)”.

With `C=CC(=O)OCCCOc1ccc(OC(=O)C2CCC(COc3ccc(OCC4CCC(C(=O)Oc5ccc(OCCCOC(=O)C=C)cc5)CC4)c(/C=N/N(C(=O)C=C)c4nc5ccccc5s4)c3)CC2)cc1` (stereo not drawn) [1-cmn-107], the Preservation stability result is reported as “A (No visual change in the appearance of the coating liquid was confirmed. A GPC analysis of the coating liquid confirmed that the change in the composition of the coating liquid was 1% or less.)”.

For the compound `C=CC(=O)OCCCCCCOc1ccc(OC(=O)C2CCC(COc3ccc(OCC4CCC(C(=O)Oc5ccc(OCCCCCCOC(=O)C=C)cc5)CC4)c(/C=N/N(C(=O)C=C)c4nc5ccccc5s4)c3)CC2)cc1` (stereo not drawn) [1-cmn-108], the Preservation stability entry was “A (No visual change in the appearance of the coating liquid was confirmed. A GPC analysis of the coating liquid confirmed that the change in the composition of the coating liquid was 1% or less.)”.

For `C=CC(=O)OCCCCCCOc1ccc(C(=O)Oc2ccc(OC(=O)c3ccc(OCCCCCCOC(=O)C=C)cc3)c(/C=N/N(CCCCCC)c3nc4ccccc4s3)c2)cc1` [1-cn-83], the Preservation stability entry was “A (No visual change in the appearance of the coating liquid was confirmed. A GPC analysis of the coating liquid confirmed that the change in the composition of the coating liquid was 1% or less.)”.

Regarding `C=CC(=O)OCCCOc1ccc(C(=O)Oc2ccc(OCCCOC(=O)C=C)cc2/C=N/Nc2nc3ccccc3s2)cc1` [1-e-69], the Preservation stability entry is “A (No visual change in the appearance of the coating liquid was confirmed. A GPC analysis of the coating liquid confirmed that the change in the composition of the coating liquid was 1% or less.)”.
